Laboratory results: the Kinase Knowledgebase extract (Sharma et al. 2016)

Target: CDK2 (UniProt P24941)
Test: Enzyme Assay
Conditions: concentration not given here

| SMILES | inhibition |
| --- | --- |
| Cc1cccc(C(=O)Nc2sc3c(c2C(N)=O)CCCC3)c1 | 100% |
| CC(C)c1cc(C(N)=O)c(NC(=O)/C=C/c2c[nH]cn2)s1 | 100% |
| CC(C)c1cc(C(N)=O)c(NC(=O)C2CCCN2C)s1 (configuration not stated) | 100% |
| CC(C)c1cc(C(N)=O)c(NC(=O)c2ccc(F)cc2)s1 | 100% |
| Cc1cc(C(=O)Nc2sc(Cc3ccccc3)cc2C(N)=O)cc(C)c1O | 100% |
| NC(=O)c1c(NC(=O)C2CCCC2)sc2c1CCCC2 | 100% |
| NC(=O)c1cc(-c2ccccc2)sc1NC(=O)/C=C/c1ccsc1 | 100% |
| CN(C)CC(=O)Nc1sc2c(c1C(N)=O)CCCC2 | 100% |
| CC(=O)NC(=O)C1CCCN1c1sc(-c2ccccc2)cc1C(N)=O (configuration not stated) | 100% |
| Cc1sc(NC(=O)c2cc(Cl)cc(Cl)c2)c(C(N)=O)c1C | 100% |
| CN1CCc2c(sc(NC(=O)c3sc4ccccc4c3Cl)c2C(N)=O)C1 | 100% |
| NC(=O)c1c(NC(=O)c2ccccn2)sc2c1CCCC2 | 100% |
| CC(=O)NC(=O)C(CC(C)C)Nc1sc(C(C)c2ccccc2)cc1C(N)=O (configuration not stated) | 100% |
| NC(=O)c1cc(Cc2ccccc2)sc1NC(=O)c1ccc2c(c1)OCO2 | 100% |
| CC(c1ccccc1)c1cc(C(N)=O)c(NC(=O)CCC(=O)c2ccccc2)s1 (configuration not stated) | 100% |
| Cc1sc(NC(=O)CCC(=O)c2cccs2)c(C(N)=O)c1C | 100% |
| NC(=O)c1cc(-c2ccccc2)sc1NC(=O)C1(c2ccccc2)CC1 | 100% |
| CN1CCc2c(sc(NC(=O)c3cc4c(Cl)cc(Cl)cc4[nH]3)c2C(N)=O)C1 | 100% |
| Cc1csc(NC(=O)c2nn(-c3ccccc3)nc2C)c1C(N)=O | 100% |
| NC(=O)c1cc(-c2ccccc2)sc1NC(=O)CCN1CCCCC1 | 100% |
| COc1cc(OC)cc(C(=O)Nc2sc(C)c(C)c2C(N)=O)c1 | 100% |

| SMILES | inhibition |
| --- | --- |
| Cc1csc(NC(=O)c2ccc(S(N)(=O)=O)cc2)c1C(N)=O | 100% |
| Cn1cccc1C(=O)Nc1sc2c(c1C(N)=O)CCCC2 | 100% |
| NC(=O)c1cc(-c2ccccc2)sc1NC(=O)c1cccc(Cl)c1 | 100% |
| Cc1csc(NC(=O)c2cnn(-c3ccccc3)c2C)c1C(N)=O | 100% |
| CC(=O)NC(Cc1c[nH]cn1)C(=O)Nc1sc2c(c1C(N)=O)CCN(C)C2 (configuration not stated) | 100% |
| CN1CCc2c(sc(NC(=O)Cc3ccc(I)cc3)c2C(N)=O)C1 | 100% |
| NC(=O)c1cc(Cc2ccccc2)sc1NC(=O)c1c[nH]c2ccccc12 | 100% |
| CC(=O)Nc1ccc(Br)c(C(=O)Nc2sc3c(c2C(N)=O)CCN(C)C3)c1 | 100% |
| CC#CC(=O)Nc1sc2c(c1C(N)=O)CCCC2 | 100% |
| CC(c1ccccc1)c1cc(C(N)=O)c(NC(=O)c2ccc(O)c(Cl)c2)s1 (configuration not stated) | 100% |
| Cc1sc(NC(=O)CNc2cccnc2)c(C(N)=O)c1C | 100% |
| NC(=O)c1cc(Cc2ccccc2)sc1-n1cnc2ncnc(C(=O)O)c21 | 100% |
| COc1ccc(C(=O)Nc2sc(Cc3ccccc3)cc2C(N)=O)c(O)c1 | 100% |
| CC(=O)c1ccc(C(=O)Nc2sc(Cc3ccccc3)cc2C(N)=O)cc1 | 100% |
| Cc1csc(NC(=O)CCn2ccc3ccccc32)c1C(N)=O | 100% |
| Cc1csc(NC(=O)CCCCCN2C(=O)C=CC2=O)c1C(N)=O | 100% |
| NC(=O)c1c(NC(=O)c2ccccc2O)sc2c1CCCC2 | 100% |
| Cc1cccc(NC(=O)c2ccccc2C(=O)Nc2sc3c(c2C(N)=O)CCN(C)C3)c1 | 100% |
| COc1cc(C(=O)Nc2scc(C)c2C(N)=O)cc(OC)c1C | 100% |
| Cc1nocc1C(=O)Nc1sc2c(c1C(N)=O)CCCC2 | 100% |
| Cc1csc(NC(=O)C2=COc3ccc(Cl)cc3C2)c1C(N)=O | 100% |

More lines, now with the values ahead:

| inhibition | SMILES |
| --- | --- |
| 100% | NC(=O)c1cc(-c2ccccc2)sc1NC(=O)COc1ccccc1 |
| 100% | Cc1cccc(C)c1C(=O)Nc1sc(C(C)C)cc1C(N)=O |
| 100% | CC(=O)N1CCC(C(=O)Nc2sc(C(C)c3ccccc3)cc2C(N)=O)CC1 (configuration not stated) |
| 100% | Cc1sc(NC(=O)c2ccc(OC(C)C)cc2)c(C(N)=O)c1C |
| 100% | CC(c1ccccc1)c1cc(C(N)=O)c(NC(=O)c2cn(C)c3ccccc23)s1 (configuration not stated) |
| 100% | Cc1csc(NC(=O)Cc2c[nH]c3ccc(O)cc23)c1C(N)=O |
| 100% | COc1ccc(C(=O)Nc2sc(-c3ccccc3)cc2C(N)=O)cc1 |
| 100% | Cc1csc(NC(=O)C2c3ccccc3-c3ccccc32)c1C(N)=O |
| 100% | CN1CCc2c(sc(NC(=O)/C=C\C(=O)Nc3cccc4ccccc34)c2C(N)=O)C1 |
| 100% | CC(c1ccccc1)c1cc(C(N)=O)c(NC(=O)c2cnc3ccccc3n2)s1 (configuration not stated) |
| 100% | CC(c1ccccc1)c1cc(C(N)=O)c(NC(=O)C2CC(=O)c3ccccc32)s1 (configuration not stated) |
| 100% | COc1cc(/C=C\C(=O)Nc2scc(C)c2C(N)=O)cc(OC)c1 |
| 100% | CC(C)c1cc(C(N)=O)c(NC(=O)CCC2CCCC2)s1 |
| 100% | CC(NC(=O)C(C)Nc1sc(-c2ccccc2)cc1C(N)=O)C(=O)O (configuration not stated) |
| 100% | CC(C)c1cc(C(N)=O)c(NC(=O)CCc2cccnc2)s1 |
| 100% | CC(=O)Nc1cccc(C(=O)Nc2sc(C(C)c3ccccc3)cc2C(N)=O)c1 (configuration not stated) |
| 100% | Cc1ccc(C(=O)Nc2sc(-c3ccccc3)cc2C(N)=O)c(O)c1 |
| 100% | CN1CCc2c(sc(NC(=O)CCN3C(=O)c4ccccc4C3=O)c2C(N)=O)C1 |
| 100% | Cc1csc(NC(=O)Cc2csc3ccccc23)c1C(N)=O |
| 100% | CC(=O)N(CC(N)=O)c1sc2c(c1C(N)=O)CCCC2 |

| inhibition | SMILES |
| --- | --- |
| 100% | CC(c1ccccc1)c1cc(C(N)=O)c(NC(=O)C(c2ccccc2)C(C)C)s1 (configuration not stated) |
| 100% | Cc1sc(NC(=O)/C=C\c2ccc3c(c2)OCO3)c(C(N)=O)c1C |
| 100% | CC(c1ccccc1)c1cc(C(N)=O)c(NC(=O)c2cccc3ccccc23)s1 (configuration not stated) |
| 100% | CC(c1ccccc1)c1cc(C(N)=O)c(NC(=O)CNC(=O)c2ccccc2)s1 (configuration not stated) |
| 100% | Cc1csc(CC(=O)c2c(-c3ccccc3)noc2C)c1C(N)=O |
| 100% | NC(=O)c1c(NC(=O)C2CC2)sc2c1CCCC2 |
| 100% | NC(=O)c1cc(-c2ccccc2)sc1NC(=O)Cc1ccc(O)cc1 |
| 100% | COc1ccccc1/C=C\C(=O)Nc1sc(C(C)c2ccccc2)cc1C(N)=O (configuration not stated) |
| 100% | Cc1noc(C)c1C(=O)Nc1sc(C(C)C)cc1C(N)=O |
| 100% | Cc1ccc2[nH]c(C(=O)Nc3sc(C)c(C)c3C(N)=O)cc2c1 |
| 100% | Cc1sc(NC(=O)c2ccc(C(F)(F)F)cc2)c(C(N)=O)c1C |
| 100% | Cc1sc(NC(=O)Cc2cn(C)c3ccccc23)c(C(N)=O)c1C |
| 100% | NC(=O)c1cc(-c2ccccc2)sc1NC(=O)c1ccc(Cl)nc1 |
| 100% | NC(=O)c1cc(-c2ccccc2)sc1NC(=O)c1cccnc1Cl |
| 100% | Cc1ccc(O)c(C(=O)Nc2sc(-c3ccccc3)cc2C(N)=O)c1 |
| 100% | Cc1ccccc1C(=O)Nc1sc2c(c1C(N)=O)CCCC2 |
| 100% | CC(c1ccccc1)c1cc(C(N)=O)c(NC(=O)c2cc3ccccc3s2)s1 (configuration not stated) |
| 100% | Cc1sc(NC(=O)c2cc(=O)c3ccccc3o2)c(C(N)=O)c1C |
| 100% | Cc1sc(NC(=O)/C=C/CNC2=CCC(=O)C=C2)c(C(N)=O)c1C |
| 100% | NC(=O)c1cc(-c2ccccc2)sc1NC(=O)C(O)c1ccccc1 (configuration not stated) |

| inhibition | SMILES |
| --- | --- |
| 100% | CC(C)c1cc(C(N)=O)c(NC(=O)c2ccc(C#N)cc2)s1 |
| 100% | CC(c1ccccc1)c1cc(C(N)=O)c(NC(=O)c2ccnc3ccccc23)s1 (configuration not stated) |
| 100% | CN(C)c1cccc(C(=O)Nc2sc(Cc3ccccc3)cc2C(N)=O)c1 |
| 100% | Cc1sc(NC(=O)C2(c3ccccc3)CCCC2)c(C(N)=O)c1C |
| 100% | CC(C)c1cc(C(N)=O)c(NC(=O)Cc2ccsc2)s1 |
| 100% | CN1CCc2c(sc(NC(=O)C(Cc3ccccc3)NC(=O)c3ccccc3)c2C(N)=O)C1 (configuration not stated) |
| 100% | NC(=O)c1c(NC(=O)C2(C(N)=O)CC2)sc2c1CCCC2 |
| 100% | CC(c1ccccc1)c1cc(C(N)=O)c(NC(=O)c2cnc3ccccc3c2)s1 (configuration not stated) |
| 100% | Cc1ccoc1C(=O)Nc1sc2c(c1C(N)=O)CCCC2 |
| 100% | NC(=O)c1ccccc1C(=O)Nc1sc(Cc2ccccc2)cc1C(N)=O |
| 100% | COc1ccccc1OCC(=O)Nc1sc(C)c(C)c1C(N)=O |
| 100% | COc1ccc(C(=O)Nc2sc(C)c(C)c2C(N)=O)cc1Cl |
| 100% | Cc1ccccc1CC(=O)Nc1sc(C(C)C)cc1C(N)=O |
| 100% | CCC(=O)C(=O)Nc1sc2c(c1C(N)=O)CCCC2 |
| 100% | COc1cc(C(=O)Nc2sc(Cc3ccccc3)cc2C(N)=O)ccc1C |
| 100% | CC(C)c1cc(C(N)=O)c(NC(=O)C2CCCCCC2)s1 |
| 100% | NC(=O)c1c(NC(=O)c2cccs2)sc2c1CCCC2 |
| 100% | COc1ccc(OC)c(C(=O)Nc2sc(C)c(C)c2C(N)=O)c1 |
| 100% | COc1ccc(/C=C\C(=O)Nc2sc(C(C)c3ccccc3)cc2C(N)=O)cc1 (configuration not stated) |
| 100% | NC(=O)CN(C(=O)c1ccco1)c1sc(Cc2ccccc2)cc1C(N)=O |
